For this assay, the system named is MTT (mouse pheochromocytoma). The assay is described as follows: IC50 of cell viability (ATP content). The note with it: (24 or 48 h). The method in brief: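 Cells of the MTT mouse pheochromocytoma line, 5 µl per well at 200,000 cells/ml, were grown overnight at 37°C, 5% CO2 in white 1536-well plates with DMEM, 5% FBS and 1% horse serum. Pintool transfer then delivered 23 nl of library compound in DMSO, giving 8 final concentrations from 0.5 nM to 46 µM, for an exposure of 24 or 48 hrs. Luminescence from CellTiter-Glo was read after 15 minutes and referenced to positive-control wells (100%) and DMSO wells (0%). IC50 was calculated with a four-parameter logistic fit.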

Where a name gives a salt, the structure may show the parent alone.

With `CC(C)CC(NC(=O)CNC(=O)C(Cc1ccc(O)cc1)NC(=O)C(CO)NC(=O)C(Cc1c[nH]c2ccccc12)NC(=O)C(Cc1c[nH]cn1)NC(=O)C1CCC(=O)N1)C(=O)NC(CCCNC(=N)N)C(=O)N1CCCC1C(=O)NCC(N)=O` (stereo not drawn) [GONADORELIN], the “IC50 of cell viability” value is greater than 46 µM.
For `CC(C)CC(NC(=O)C(COC(C)(C)C)NC(=O)C(Cc1ccc(O)cc1)NC(=O)C(CO)NC(=O)C(Cc1c[nH]c2ccccc12)NC(=O)C(Cc1cnc[nH]1)NC(=O)C1CCC(=O)N1)C(=O)NC(CCCN=C(N)N)C(=O)N1CCCC1C(=O)NNC(N)=O` (stereo not drawn) [GOSERELIN ACETATE] the value was greater than 46 µM; for `CC(C)C[C@@H](NC(=O)[C@@H](COC(C)(C)C)NC(=O)[C@H](Cc1ccc(O)cc1)NC(=O)[C@@H](CO)NC(=O)[C@@H](Cc1c[nH]c2ccccc12)NC(=O)[C@@H](Cc1c[nH]cn1)NC(=O)[C@@H]1CCC(=O)N1)C(=O)N[C@H](CCCNC(=N)N)C(=O)N1CCC[C@H]1C(=O)NNC(N)=O` [GOSERELIN ACETATE], greater than 46 µM.
Next, `Cc1c(F)c(N2CCNC(C)C2)cc2c1c(=O)c(C(=O)O)cn2C1CC1` (stereo not drawn) [GREPAFLOXACIN HYDROCHLORIDE]: greater than 46 µM; `N=C(N)N/N=C/c1c(Cl)cccc1Cl` [GUANABENZ]: greater than 46 µM.
As for `N=C(N)NC(=O)Cc1c(Cl)cccc1Cl` [GUANFACINE], the “IC50 of cell viability” value was greater than 46 µM.
As for `N=C(N)N.O=C(O)O` [GUANIDINE CARBONATE], the “IC50 of cell viability” value was greater than 46 µM.
For `NCC1(CC(=O)O)CCCCC1` [Gabapentin] the value was greater than 46 µM; for `CCOC(=O)c1ccc(OC(=O)CCCCCNC(=N)N)cc1.C[S+](=O)([O-])O` [Gabexate mesilate], greater than 46 µM.
For `OCC1OC(O)C(O)C(O)C1O` (stereo not drawn) [Galactose] the value was greater than 46 µM.
Take `O=C(O)c1cc(O)c(O)c(O)c1` [Gallic acid]: the “IC50 of cell viability” value is greater than 46 µM.
For the compound `CCCCC/C=C\C/C=C\C/C=C\CCCCC(=O)O` [Gamolenic acid], the “IC50 of cell viability” value was greater than 46 µM.
For `N\C1=N\C2=C(N=C[N]2COC(CO)CO)C(=O)N1` [Ganciclovir] the value was greater than 46 µM; for `C[C@H]1NCc2cc(-c3ccc4c(=O)c(C(=O)O)cn(C5CC5)c4c3OC(F)F)ccc21` [Garenoxacin], greater than 46 µM; for `COc1cc2ncnc(Nc3ccc(F)c(Cl)c3)c2cc1OCCCN1CCOCC1` [Gefitinib], greater than 46 µM.
As to `Cc1ccc(C)c(OCCCC(C)(C)C(=O)O)c1` [Gemfibrozil], the “IC50 of cell viability” value was greater than 46 µM.
Regarding `CN[C@@H](C)[C@H]1CC[C@@H](N)[C@H](O[C@@H]2[C@@H](O)[C@H](O[C@@H]3OC[C@@](C)(O)[C@@H](NC)[C@H]3O)[C@H](N)C[C@@H]2N)O1.CN[C@H]1[C@@H](O)[C@H](O[C@H]2[C@H](O)[C@@H](O[C@@H]3O[C@@H](CN)CC[C@H]3N)[C@@H](N)C[C@H]2N)OC[C@@]1(C)O.CN[C@H]1[C@@H](O)[C@H](O[C@H]2[C@H](O)[C@@H](O[C@@H]3O[C@@H]([C@H](C)N)CC[C@H]3N)[C@@H](N)C[C@H]2N)OC[C@@]1(C)O.O=[S+]([O-])(O)O` [Gentamicine sulfate], the “IC50 of cell viability” value is greater than 46 µM.
`CC(C)=CCC/C(C)=C/CC/C(C)=C/CCC(=O)OC/C=C(\C)CCC=C(C)C` [Geranyl farnesylacetate]: the “IC50 of cell viability” value is greater than 46 µM.
Next, `O=C(OC[C@@H](O)CO)c1ccccc1Nc1ccnc2cc(Cl)ccc12` [Glafenine hydrochloride]: greater than 46 µM; `Cc1ccc([S+](=O)([O-])NC(=O)NN2C[C@H]3CCC[C@@H]3C2)cc1` [Gliclazide]: greater than 46 µM.
For `CC\C1=C(/C)CN(C(=O)NCCC2=CC=C(C=C2)[S+]([O-])(=O)NC(=O)NC3CCC(C)CC3)C1=O` (stereo not drawn) [Glimepiride] the value was greater than 46 µM; for `COc1ccc2c(c1)C(=O)N(CCc1ccc([S+](=O)([O-])NC(=O)NC3CCCCC3)cc1)C(=O)C2(C)C` [Gliquidone], greater than 46 µM.
Next, `COc1ccc([S+](=O)([O-])Nc2nnc(CC(C)C)s2)cc1` [Glisobuzol]: greater than 46 µM; `Cc1cc(C(=O)NCCc2ccc([S+](=O)([O-])NC(=O)NN3CCCCCC3)cc2)no1` [Glisoxepide]: greater than 46 µM.
With `O=C1O[C@H]2[C@@H](OC(O)[C@@H]2O)[C@H]1O` (stereo partly drawn) [Glucuronolactone], the “IC50 of cell viability” value is greater than 46 µM.
On to `O=CCCCC=O` [Glutaraldehyde (Glutaric dialdehyde)], for which the “IC50 of cell viability” value is greater than 46 µM.
Next, `CC[C@@]1(c2ccc(N)cc2)CCC(=O)NC1=O` [Glutethimide, para-amino]: greater than 46 µM; `CCC1(c2ccccc2)CCC(=O)NC1=O` (stereo not drawn) [Glutethimide]: greater than 46 µM.
Consider `O=P([O-])([O-])OC(CO)CO` [Glycerol phosphate calcium salt], for which the “IC50 of cell viability” value is greater than 46 µM.
With `NCC(=O)O` [Glycine], the “IC50 of cell viability” value was greater than 46 µM.
`CCCCCCCCCCCCCCCCCC(=O)OCCO` [Glycol stearate]: the “IC50 of cell viability” value was greater than 46 µM.
Next, `C[N+]1(C)CCC(OC(=O)C(O)(c2ccccc2)C2CCCC2)C1` (stereo not drawn) [Glycopyrrolate bromide]: greater than 46 µM; `Cc1ccc([S+](=O)([O-])NC(=O)NC2CCCCC2)cc1` [Glycyclamide]: greater than 46 µM.
Next, `O=CC=O` [Glyoxal]: greater than 46 µM.
Next, `COc1cc2c(c(OC)c1OC)-c1c(cc3c(c1OC)OCO3)CC(C)C(C)(O)C2` (stereo not drawn) [Gomisin A]: greater than 46 µM; `COc1cc2c(c(OC)c1OC)-c1c(cc3c(c1OC)OCO3)C[C@@H](C)[C@](C)(O)C2` [Gomisin A]: greater than 46 µM; `Cc1cc2c(C(C)C)c(O)c(O)c(C=O)c2c(O)c1-c1c(C)cc2c(C(C)C)c(O)c(O)c(C=O)c2c1O` [Gossypol]: greater than 46 µM.
Take `CN1[C@@H]2CCC[C@@H]1CC(NC(=O)c1nn(C)c3ccccc13)C2` (stereo partly drawn) [Granisetron Hydrochloride]: the “IC50 of cell viability” value is greater than 46 µM.
For `COC1=CC(=C2C(=O)[C@]\3(OC2=C1Cl)[C@H](C)CC(=O)\C=C3OC)OC` [Griseofulvin] the value was greater than 46 µM; for `CCN(CC)CCOc1ccccc1OC` [Guaiactamine], greater than 46 µM; for `COc1ccccc1OC[C@H](O)CO` [Guaifenesin], greater than 46 µM.
For `N=C(N)NC[C@@H]1COC2(CCCCC2)O1` [Guanadrel sulfate] the value was greater than 46 µM; for `N=C(N)NCCN1CCCCCCC1` [Guanethidine sulfate], greater than 46 µM; for `N=C(N)NCC1COc2ccccc2O1` (stereo not drawn) [Guanoxano], greater than 46 µM.
Next, `N=C(N)NCCCCCCC(=O)NC(O)C(=O)NCCCCNCCCN` (stereo not drawn) [Gusperimus trihydrochloride]: greater than 46 µM.
On to `O=C(O)c1ccc([S+](=O)([O-])N(Cl)Cl)cc1` [HALAZONE], for which the “IC50 of cell viability” value is greater than 46 µM.
For `CCC(=O)O[C@]1(C(=O)CCl)[C@@H](C)CC2C3C[C@H](F)C4=CC(=O)C=CC4(C)[C@@]3(F)C(O)CC21C` (stereo partly drawn) [HALOBETASOL PROPIONATE] the value was greater than 46 µM; for `O=C(CC1NCCC[C@H]1O)Cn1cnc2cc(Br)c(Cl)cc2c1=O` (stereo partly drawn) [HALOFUGINONE LACTATE], greater than 46 µM.
Next, `O=C(CCCN1CCC(O)(c2ccc(Cl)cc2)CC1)c1ccc(F)cc1` [HALOPERIDOL]: greater than 46 µM; `CC(N)CCCC(C)(C)O.Cl` (stereo not drawn) [HEPTAMINOL HYDROCHLORIDE]: greater than 46 µM; `CC1(C)SC2C(N3C(=O)C(c4ccccc4)NC3(C)C)C(=O)N2C1C(=O)[O-].[K+]` (stereo not drawn) [HETACILLIN POTASSIUM]: greater than 46 µM.
For the compound `C[N+](C)(C)CCCCCC[N+](C)(C)C` [HEXAMETHONIUM], the “IC50 of cell viability” value is greater than 46 µM.
Take `CC(C)CCCC(C)CCCC(C)CCCCC(C)CCCC(C)CCCC(C)C` (stereo not drawn) [HEXAMETHYLTETRACOSANE]: the “IC50 of cell viability” value is greater than 46 µM.
Take `CN1C(=O)NC(=O)C(C)(C2=CCCCC2)C1=O` (stereo not drawn) [HEXOBARBITAL]: the “IC50 of cell viability” value was greater than 46 µM.
For `Oc1ccc(C(O)CNCCCCCCNCC(O)c2ccc(O)c(O)c2)cc1O` (stereo not drawn) [HEXOPRENALINE SULFATE] the value was greater than 46 µM; for `CCCCCCOC(=O)c1cccnc1` [HEXYL NICOTINATE], greater than 46 µM; for `NCCc1c[nH]cn1` [HISTAMINE], greater than 46 µM.
Next, `CN(C)CCc1ccc(O)cc1` [HORDENINE]: greater than 46 µM.
With `CC(=O)N[C@@H]1C(O[C@H]2O[C@H](C(=O)O)C(O)[C@H](O)[C@H]2O)[C@H](O)[C@@H](CO)O[C@H]1O[C@@H]1C(C(=O)O)O[C@@H](O[C@H]2[C@H](O)[C@@H](CO)OC(O)[C@@H]2NC(C)=O)[C@H](O)[C@H]1O` (stereo partly drawn) [HYALURONATE SODIUM], the “IC50 of cell viability” value is greater than 46 µM.
Next, `N[S+](=O)([O-])c1cc2c(cc1Cl)NCN[S+]2(=O)[O-]` [HYDROCHLOROTHIAZIDE]: greater than 46 µM.
Next, `COc1ccc2c3c1O[C@H]1C(=O)CC[C@H]4[C@@H](C2)N(C)CC[C@]314` [HYDROCODONE BITARTRATE]: greater than 46 µM.
As for `CCCC(=O)O[C@@]1(CCC2[C@@H]3CCC/4=C/C(=O)CC[C@]4(C)C3C(O)C[C@@]12C)C(=O)CO` (stereo partly drawn) [HYDROCORTISONE BUTYRATE], the “IC50 of cell viability” value is greater than 46 µM.
For `CCCC(=O)O[C@]1(C(=O)COC(=O)CC)CC[C@@H]2[C@@H]3CCC4=CC(=O)CC[C@]4(C)[C@H]3[C@@H](O)C[C@@]21C` [HYDROCORTISONE PROBUTATE] the value was greater than 46 µM.

The values are drawn from the supplement of paper PMC3974653.
